± gives the expanded uncertainty stated by the source.
Assay: wn = mass fraction of the nth substance listed
Settings: 101.33 kPa, Liquid; for viscosity: Concentric cylinders viscometry; for mass density: Vibrating tube method

OCCCO [propan-1,3-diol] + O
Settings | mass density [kg/m3] | viscosity [mPa·s]
253.15 K, w1 = 0.4453 | 1053.7 ± 8 | 40.11 ± 12
253.15 K, w1 = 0.501 | 1058 ± 8 | 49.09 ± 15
253.15 K, w1 = 0.6123 | 1068.2 ± 8 | 85.87 ± 26
253.15 K, w1 = 0.7236 | 1074.9 ± 8 | 158.67 ± 48
253.15 K, w1 = 0.8349 | 1078.5 ± 8 | 267.81 ± 81
253.15 K, w1 = 0.9277 | 1079.6 ± 8 | 418.56 ± 130
253.15 K, w1 = 1 | 1078.2 ± 8 | 574.39 ± 170
258.15 K, w1 = 0.4453 | 1051.8 ± 8 | 29.02 ± 8.7
258.15 K, w1 = 0.501 | 1055.9 ± 8 | 35.24 ± 11
258.15 K, w1 = 0.6123 | 1065.8 ± 8 | 63.15 ± 19
258.15 K, w1 = 0.7236 | 1072.2 ± 8 | 110.64 ± 33
258.15 K, w1 = 0.8349 | 1075.5 ± 8 | 184.18 ± 55
258.15 K, w1 = 0.9277 | 1076.5 ± 8 | 293.3 ± 88
258.15 K, w1 = 1 | 1075.4 ± 8 | 409.88 ± 120
263.15 K, w1 = 0.334 | 1035.2 ± 8 | 12.02 ± 3.6
263.15 K, w1 = 0.4453 | 1047.7 ± 8 | 19.91 ± 6
263.15 K, w1 = 0.501 | 1052.5 ± 8 | 24.97 ± 7.5
263.15 K, w1 = 0.6123 | 1062.1 ± 8 | 44.2 ± 13
263.15 K, w1 = 0.7236 | 1068.4 ± 8 | 76.18 ± 23
263.15 K, w1 = 0.8349 | 1072.2 ± 8 | 132.29 ± 40
263.15 K, w1 = 0.9277 | 1073.2 ± 8 | 206.53 ± 62
263.15 K, w1 = 1 | 1072.3 ± 8 | 289.5 ± 87
268.15 K, w1 = 0.2226 | 1022.1 ± 8 | 5.908 ± 1.8
268.15 K, w1 = 0.334 | 1033.9 ± 8 | 9.252 ± 2.8
268.15 K, w1 = 0.4453 | 1045.7 ± 8 | 15.12 ± 4.5
268.15 K, w1 = 0.501 | 1050.3 ± 8 | 18.81 ± 5.6
268.15 K, w1 = 0.6123 | 1059.5 ± 8 | 32.82 ± 9.8
268.15 K, w1 = 0.7236 | 1065.6 ± 8 | 55.72 ± 17
268.15 K, w1 = 0.8349 | 1069.3 ± 8 | 95.75 ± 29
268.15 K, w1 = 0.9277 | 1070.1 ± 8 | 149.24 ± 45
268.15 K, w1 = 1 | 1069 ± 8 | 207.88 ± 62
273.15 K, w1 = 0.1113 | 1009.7 ± 8 | 2.894 ± 0.87
273.15 K, w1 = 0.2226 | 1021.3 ± 8 | 4.695 ± 1.4
273.15 K, w1 = 0.334 | 1032.5 ± 8 | 7.257 ± 2.2
273.15 K, w1 = 0.4453 | 1043.7 ± 8 | 11.74 ± 3.5
273.15 K, w1 = 0.501 | 1048.1 ± 8 | 14.52 ± 4.4
273.15 K, w1 = 0.6123 | 1056.9 ± 8 | 24.88 ± 7.5
273.15 K, w1 = 0.7236 | 1062.7 ± 8 | 41.58 ± 12
273.15 K, w1 = 0.8349 | 1066.3 ± 8 | 70.71 ± 21
273.15 K, w1 = 0.9277 | 1067.1 ± 8 | 109.69 ± 33
273.15 K, w1 = 1 | 1065.9 ± 8 | 152.75 ± 46
283.15 K, w1 = 0.1113 | 1008.8 ± 8 | 2.055 ± 0.62
283.15 K, w1 = 0.2226 | 1019.2 ± 8 | 3.165 ± 0.95
283.15 K, w1 = 0.334 | 1029.2 ± 8 | 4.748 ± 1.4
283.15 K, w1 = 0.4453 | 1039.3 ± 8 | 7.451 ± 2.2
283.15 K, w1 = 0.501 | 1043.3 ± 8 | 9.1 ± 2.7
283.15 K, w1 = 0.6123 | 1051.4 ± 8 | 15.1 ± 4.5
283.15 K, w1 = 0.7236 | 1056.8 ± 8 | 24.57 ± 7.4
283.15 K, w1 = 0.8349 | 1060.2 ± 8 | 40.76 ± 12
283.15 K, w1 = 0.9277 | 1061 ± 8 | 62.32 ± 19
283.15 K, w1 = 1 | 1059.8 ± 8 | 86.48 ± 26
293.15 K, w1 = 0.1113 | 1006.7 ± 8 | 1.529 ± 0.46
293.15 K, w1 = 0.2226 | 1016.3 ± 8 | 2.251 ± 0.68
293.15 K, w1 = 0.334 | 1025.4 ± 8 | 3.318 ± 1
293.15 K, w1 = 0.4453 | 1034.5 ± 8 | 5.035 ± 1.5
293.15 K, w1 = 0.501 | 1038.3 ± 8 | 6.074 ± 1.8
293.15 K, w1 = 0.6123 | 1045.7 ± 8 | 9.77 ± 2.9
293.15 K, w1 = 0.7236 | 1050.9 ± 8 | 15.48 ± 4.6
293.15 K, w1 = 0.8349 | 1054 ± 8 | 25 ± 7.5
293.15 K, w1 = 0.9277 | 1054.7 ± 8 | 37.6 ± 11
293.15 K, w1 = 1 | 1053.6 ± 8 | 52.01 ± 16
303.15 K, w1 = 0.1113 | 1004.1 ± 8 | 1.189 ± 0.36
303.15 K, w1 = 0.2226 | 1012.9 ± 8 | 1.689 ± 0.51
303.15 K, w1 = 0.334 | 1021.1 ± 8 | 2.421 ± 0.73
303.15 K, w1 = 0.4453 | 1029.5 ± 8 | 3.585 ± 1.1
303.15 K, w1 = 0.501 | 1033 ± 8 | 4.306 ± 1.3
303.15 K, w1 = 0.6123 | 1039.9 ± 8 | 6.724 ± 2
303.15 K, w1 = 0.7236 | 1044.8 ± 8 | 10.32 ± 3.1
303.15 K, w1 = 0.8349 | 1047.8 ± 8 | 16.26 ± 4.9
303.15 K, w1 = 0.9277 | 1048.5 ± 8 | 24.03 ± 7.2
303.15 K, w1 = 1 | 1047.4 ± 8 | 32.92 ± 9.9
313.15 K, w1 = 0.1113 | 1000.4 ± 8 | 0.9825 ± 0.29
313.15 K, w1 = 0.2226 | 1008.3 ± 8 | 1.332 ± 0.4
313.15 K, w1 = 0.334 | 1016.3 ± 8 | 1.857 ± 0.56
313.15 K, w1 = 0.4453 | 1023.9 ± 8 | 2.659 ± 0.8
313.15 K, w1 = 0.501 | 1027.3 ± 8 | 3.148 ± 0.94
313.15 K, w1 = 0.6123 | 1033.8 ± 8 | 4.725 ± 1.4
313.15 K, w1 = 0.7236 | 1038.6 ± 8 | 7.184 ± 2.2
313.15 K, w1 = 0.8349 | 1041.5 ± 8 | 11.05 ± 3.3
313.15 K, w1 = 0.9277 | 1042.2 ± 8 | 16.04 ± 4.8
313.15 K, w1 = 1 | 1041.1 ± 8 | 21.79 ± 6.5
323.15 K, w1 = 0.1113 | 996.2 ± 8 | 0.7887 ± 0.24
323.15 K, w1 = 0.2226 | 1003.5 ± 8 | 1.076 ± 0.32
323.15 K, w1 = 0.334 | 1010.8 ± 8 | 1.465 ± 0.44
323.15 K, w1 = 0.4453 | 1018.1 ± 8 | 2.051 ± 0.62
323.15 K, w1 = 0.501 | 1021.3 ± 8 | 2.401 ± 0.72
323.15 K, w1 = 0.6123 | 1027.4 ± 8 | 3.522 ± 1.1
323.15 K, w1 = 0.7236 | 1032.1 ± 8 | 5.219 ± 1.6
323.15 K, w1 = 0.8349 | 1035 ± 8 | 7.801 ± 2.3
323.15 K, w1 = 0.9277 | 1035.8 ± 8 | 11.15 ± 3.3
323.15 K, w1 = 1 | 1034.8 ± 8 | 15 ± 4.5
333.15 K, w1 = 0.1113 | 991.1 ± 8 | 0.6769 ± 0.2
333.15 K, w1 = 0.2226 | 998.3 ± 8 | 0.8845 ± 0.27
333.15 K, w1 = 0.334 | 1005.2 ± 8 | 1.194 ± 0.36
333.15 K, w1 = 0.4453 | 1011.8 ± 8 | 1.641 ± 0.49
333.15 K, w1 = 0.501 | 1014.8 ± 8 | 1.885 ± 0.57
333.15 K, w1 = 0.6123 | 1020.9 ± 8 | 2.698 ± 0.81
333.15 K, w1 = 0.7236 | 1025.4 ± 8 | 3.9 ± 1.2
333.15 K, w1 = 0.8349 | 1028.3 ± 8 | 5.713 ± 1.7
333.15 K, w1 = 0.9277 | 1029.3 ± 8 | 8.023 ± 2.4
333.15 K, w1 = 1 | 1028.4 ± 8 | 10.72 ± 3.2
343.15 K, w1 = 0.1113 | 985.3 ± 8 | 0.5651 ± 0.17
343.15 K, w1 = 0.2226 | 992.4 ± 8 | 0.7245 ± 0.22
343.15 K, w1 = 0.334 | 999.3 ± 8 | 0.9821 ± 0.29
343.15 K, w1 = 0.4453 | 1005.3 ± 8 | 1.301 ± 0.39
343.15 K, w1 = 0.501 | 1008.4 ± 8 | 1.512 ± 0.45
343.15 K, w1 = 0.6123 | 1014.1 ± 8 | 2.123 ± 0.64
343.15 K, w1 = 0.7236 | 1018.5 ± 8 | 3.01 ± 0.9
343.15 K, w1 = 0.8349 | 1021.5 ± 8 | 4.303 ± 1.3
343.15 K, w1 = 0.9277 | 1022.6 ± 8 | 5.933 ± 1.8
343.15 K, w1 = 1 | 1021.9 ± 8 | 7.855 ± 2.4
353.15 K, w1 = 0.1113 | 978.6 ± 8 | 0.4871 ± 0.15
353.15 K, w1 = 0.2226 | 986.3 ± 8 | 0.6668 ± 0.2
353.15 K, w1 = 0.334 | 992.6 ± 8 | 0.8548 ± 0.26
353.15 K, w1 = 0.4453 | 998.5 ± 8 | 1.09 ± 0.33
353.15 K, w1 = 0.501 | 1001.2 ± 8 | 1.21 ± 0.36
353.15 K, w1 = 0.6123 | 1006.8 ± 8 | 1.731 ± 0.52
353.15 K, w1 = 0.7236 | 1011.7 ± 8 | 2.423 ± 0.73
353.15 K, w1 = 0.8349 | 1014.4 ± 8 | 3.317 ± 1
353.15 K, w1 = 0.9277 | 1015.8 ± 8 | 4.515 ± 1.4
353.15 K, w1 = 1 | 1015.3 ± 8 | 5.916 ± 1.8

— the NIST ThermoML archive (doi:10.1021/acs.jced.8b00403)
